From ChEMBL document CHEMBL1201862, “PubChem BioAssay data set” (2004)
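In this assay, cells in 96-well plates receive the compound at five concentrations for 48 hours. Endpoints are linearly interpolated between the surrounding concentrations. GI50 is the concentration that inhibits growth by half.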 Activity calls are given as the source filed them. Cut-off read from the data, not from the text of the source: active = GI50 up to about 1.1 µM and inactive = higher.

Assays:
Assay in all cases: inhibition of tumour cell growth, NCI panel, 48 h
Malme-3M = tested on: Malme-3M
HOP-62 = tested on: HOP-62
A549 = tested on: A549
HCT-15 = tested on: HCT-15
RPMI-8226 = tested on: RPMI-8226
NCI-H226 = tested on: NCI-H226
UO-31 = tested on: UO-31
SR = tested on: SR
M14 = tested on: M14
CAKI-1 = tested on: CAKI-1
EKVX = tested on: EKVX
HCC 2998 = tested on: HCC 2998
MCF7 = tested on: MCF7
OVCAR-3 = tested on: OVCAR-3
KM12 = tested on: KM12
SK-OV-3 = tested on: SK-OV-3
MOLT-4 = tested on: MOLT-4
SK-MEL-5 = tested on: SK-MEL-5
HCT-116 = tested on: HCT-116
A498 = tested on: A498
SF-539 = tested on: SF-539
NCI-H460 = tested on: NCI-H460
NCI-H522 = tested on: NCI-H522
SW-620 = tested on: SW-620
UACC-257 = tested on: UACC-257
HL-60 = tested on: HL-60
MDA-MB-231 = tested on: MDA-MB-231
ACHN = tested on: ACHN
U-251 = tested on: U-251
OVCAR-5 = tested on: OVCAR-5
PC-3 = tested on: PC-3
786-0 = tested on: 786-0
SK-MEL-2 = tested on: SK-MEL-2
OVCAR-4 = tested on: OVCAR-4
HT-29 = tested on: HT-29
RXF 393 = tested on: RXF 393
OVCAR-8 = tested on: OVCAR-8
DU-145 = tested on: DU-145
SNB-75 = tested on: SNB-75
T47D = tested on: T47D
TK-10 = tested on: TK-10
SF-268 = tested on: SF-268
SF-295 = tested on: SF-295
MDA-MB-435 = tested on: MDA-MB-435
HOP-92 = tested on: HOP-92
NCI/ADR-RES = tested on: NCI/ADR-RES
UACC-62 = tested on: UACC-62
BT-549 = tested on: BT-549
SNB-19 = tested on: SNB-19
COLO 205 = tested on: COLO 205
NCI-H23 = tested on: NCI-H23
Hs-578T = tested on: Hs-578T

SMILES: N[C@]1(C(=O)O)C[C@@H]2C(Br)=NO[C@@H]2C1
- GI50 (Malme-3M): > 100 µM (inactive)
- GI50 (HOP-62): > 100 µM (inactive)
- GI50 (A549): > 100 µM (inactive)
- GI50 (HCT-15): 76.9 µM
- GI50 (RPMI-8226): > 100 µM (inactive)
- GI50 (NCI-H226): > 100 µM (inactive)
- GI50 (UO-31): > 100 µM (inactive)
- GI50 (SR): 78.9 µM (inactive)
- GI50 (M14): > 100 µM (inactive)
- GI50 (CAKI-1): > 100 µM (inactive)
- GI50 (EKVX): 70.3 µM (inactive)
- GI50 (HCC 2998): > 100 µM (inactive)
- GI50 (MCF7): > 100 µM (inactive)
- GI50 (OVCAR-3): > 100 µM (inactive)
- GI50 (KM12): > 100 µM (inactive)
- GI50 (SK-OV-3): > 100 µM (inactive)
- GI50 (MOLT-4): > 100 µM (inactive)
- GI50 (SK-MEL-5): > 100 µM (inactive)
- GI50 (HCT-116): 56 µM (inactive)
- GI50 (A498): > 100 µM (inactive)
- GI50 (SF-539): > 100 µM (inactive)
- GI50 (NCI-H460): 55.7 µM (inactive)
- GI50 (NCI-H522): > 100 µM (inactive)
- GI50 (SW-620): > 100 µM (inactive)
- GI50 (UACC-257): > 100 µM (inactive)
- GI50 (HL-60): > 100 µM (inactive)
- GI50 (MDA-MB-231): > 100 µM (inactive)
- GI50 (ACHN): > 100 µM (inactive)
- GI50 (U-251): > 100 µM (inactive)
- GI50 (OVCAR-5): > 100 µM (inactive)
- GI50 (PC-3): > 100 µM (inactive)
- GI50 (786-0): > 100 µM (inactive)
- GI50 (SK-MEL-2): > 100 µM (inactive)
- GI50 (OVCAR-4): > 100 µM (inactive)
- GI50 (HT-29): > 100 µM (inactive)
- GI50 (RXF 393): > 100 µM (inactive)
- GI50 (OVCAR-8): > 100 µM (inactive)
- GI50 (DU-145): > 100 µM (inactive)
- GI50 (SNB-75): > 100 µM (inactive)
- GI50 (T47D): > 100 µM (inactive)
- GI50 (TK-10): > 100 µM (inactive)
- GI50 (SF-268): > 100 µM (inactive)
- GI50 (SF-295): > 100 µM (inactive)
- GI50 (MDA-MB-435): > 100 µM (inactive)
- GI50 (HOP-92): > 100 µM (inactive)
- GI50 (NCI/ADR-RES): > 100 µM (inactive)
- GI50 (UACC-62): > 100 µM (inactive)
- GI50 (BT-549): > 100 µM (inactive)
- GI50 (SNB-19): > 100 µM (inactive)
- GI50 (COLO 205): > 100 µM (inactive)
- GI50 (NCI-H23): > 100 µM (inactive)
- GI50 (Hs-578T): > 100 µM (inactive)
